Measurements reported in ChEMBL document CHEMBL4184139, “Adamantyl- and other polycyclic cage-based conjugates of desferrioxamine B (DFOB) for treating iron-mediated toxicity in cell models of Parkinson's disease” (Bioorg Med Chem Lett, 2017).
Active and inactive are the calls of the source. The rule behind the calls is not given here.

tested on: not listed separately; assay: Binding affinity to Fe3+ assessed as [M+2H]+ adduct formation by LC-MS/MS analysis; conditions: not given

Compound	Activity
CC(=O)N(O)CCCCCNC(=O)CCC(=O)N(O)CCCCCNC(=O)CCC(=O)N(O)CCCCCNC(=O)C[C@H]1C[C@H]2CC[C@H]1C2 (relative stereo)	Active
CC(=O)N(O)CCCCCNC(=O)CCC(=O)N(O)CCCCCNC(=O)CCC(=O)N(O)CCCCCNC(=O)C12CC3CC(CC(C3)C1)C2	Active
CC(=O)N(O)CCCCCNC(=O)CCC(=O)N(O)CCCCCNC(=O)CCC(=O)N(O)CCCCCNC(=O)C12CC3CC(C1)CC(c1ccc([N+](=O)[O-])cc1)(C3)C2	Active

tested on: SK-N-BE(2)-M17; assay: Cytoprotection against H2O2-induced cell death in human SK-N-BE(2)-M17 cells assessed as increase in cell viability at 100 uM pretreated for 2 hrs followed by 1 mM H2O2 addition measured after 24 hrs by LDH assay; type: functional, cell-based; conditions: not given

Compound	Activity
CC(=O)N(O)CCCCCNC(=O)CCC(=O)N(O)CCCCCNC(=O)CCC(=O)N(O)CCCCCNC(=O)C[C@H]1C[C@H]2CC[C@H]1C2 (relative stereo)	Active
CC(=O)N(O)CCCCCNC(=O)CCC(=O)N(O)CCCCCNC(=O)CCC(=O)N(O)CCCCCNC(=O)C12CC3CC(CC(C3)C1)C2	Active
CC(=O)N(O)CCCCCNC(=O)CCC(=O)N(O)CCCCCNC(=O)CCC(=O)N(O)CCCCCNC(=O)C12CC3CC(C1)CC(c1ccc([N+](=O)[O-])cc1)(C3)C2	Active

tested on: SK-N-BE(2)-M17; assay: Cytoprotection against PQ-induced cell death in human SK-N-BE(2)-M17 cells assessed as increase in cell viability at 100 uM treated post 200 uM Fecl3 and 1 mM PQ treatment measured after 24 hrs by LDH assay; type: functional, cell-based; conditions: not given

Compound	Activity
CC(=O)N(O)CCCCCNC(=O)CCC(=O)N(O)CCCCCNC(=O)CCC(=O)N(O)CCCCCNC(=O)C12CC3CC(CC(C3)C1)C2	Active
CC(=O)N(O)CCCCCNC(=O)CCC(=O)N(O)CCCCCNC(=O)CCC(=O)N(O)CCCCCNC(=O)C12CC3CC(C1)CC(c1ccc([N+](=O)[O-])cc1)(C3)C2	Active

tested on: Astrocyte; assay: Cytoprotection against H2O2-induced cell death in BSO pretreated C57BL6/J mouse brain primary astrocytes assessed as increase in cell viability at 10 uM pretreated for 2 hrs followed by H2O2 addition measured after 24 hrs by MTT assay; type: functional, cell-based; conditions: not given

Compound	Activity
CC(=O)N(O)CCCCCNC(=O)CCC(=O)N(O)CCCCCNC(=O)CCC(=O)N(O)CCCCCNC(=O)C12CC3CC(CC(C3)C1)C2	Active
CC(=O)N(O)CCCCCNC(=O)CCC(=O)N(O)CCCCCNC(=O)CCC(=O)N(O)CCCCCNC(=O)C12CC3CC(C1)CC(c1ccc([N+](=O)[O-])cc1)(C3)C2	Active

tested on: SK-N-BE(2)-M17; assay: Cytoprotection against H2O2-induced cell death in human SK-N-BE(2)-M17 cells assessed as increase in cell viability at 100 uM pretreated for 2 hrs followed by 1 mM H2O2 addition measured after 24 hrs by MTT assay; type: functional, cell-based; conditions: not given

Compound	Activity
CC(=O)N(O)CCCCCNC(=O)CCC(=O)N(O)CCCCCNC(=O)CCC(=O)N(O)CCCCCNC(=O)C[C@H]1C[C@H]2CC[C@H]1C2 (relative stereo)	Active
CC(=O)N(O)CCCCCNC(=O)CCC(=O)N(O)CCCCCNC(=O)CCC(=O)N(O)CCCCCNC(=O)C12CC3CC(CC(C3)C1)C2	Active
CC(=O)N(O)CCCCCNC(=O)CCC(=O)N(O)CCCCCNC(=O)CCC(=O)N(O)CCCCCNC(=O)C12CC3CC(C1)CC(c1ccc([N+](=O)[O-])cc1)(C3)C2	Active

tested on: SK-N-BE(2)-M17; assay: Cytoprotection against PQ-induced cell death in human SK-N-BE(2)-M17 cells assessed as increase in cell viability at 100 uM treated 2 hrs post 2 mM PQ treatment measured after 24 hrs by LDH assay; type: functional, cell-based; conditions: not given

Compound	Activity
CC(=O)N(O)CCCCCNC(=O)CCC(=O)N(O)CCCCCNC(=O)CCC(=O)N(O)CCCCCNC(=O)C[C@H]1C[C@H]2CC[C@H]1C2 (relative stereo)	Active
CC(=O)N(O)CCCCCNC(=O)CCC(=O)N(O)CCCCCNC(=O)CCC(=O)N(O)CCCCCNC(=O)C12CC3CC(CC(C3)C1)C2	Active
CC(=O)N(O)CCCCCNC(=O)CCC(=O)N(O)CCCCCNC(=O)CCC(=O)N(O)CCCCCNC(=O)C12CC3CC(C1)CC(c1ccc([N+](=O)[O-])cc1)(C3)C2	Active

tested on: not listed separately; assay: Octanol-water partition coefficient, log P of the compound at 1 mg by RP-HPLC analysis; type: physicochemical; conditions: not given

Compound	logP
CC(=O)N(O)CCCCCNC(=O)CCC(=O)N(O)CCCCCNC(=O)CCC(=O)N(O)CCCCCNC(=O)C[C@H]1C[C@H]2CC[C@H]1C2 (relative stereo)	1.16
CC(=O)N(O)CCCCCNC(=O)CCC(=O)N(O)CCCCCNC(=O)CCC(=O)N(O)CCCCCNC(=O)C12CC3CC(CC(C3)C1)C2	1.32
CC(=O)N(O)CCCCCNC(=O)CCC(=O)N(O)CCCCCNC(=O)CCC(=O)N(O)CCCCCNC(=O)C12CC3CC(C1)CC(c1ccc([N+](=O)[O-])cc1)(C3)C2	2.09

tested on: SK-N-BE(2)-M17; assay: Cytoprotection against PQ-induced cell death in human SK-N-BE(2)-M17 cells assessed as increase in cell viability at 100 uM treated post 200 uM Fecl3 and 1 mM PQ treatment measured after 24 hrs by MTT assay; type: functional, cell-based; conditions: not given

Compound	Activity
CC(=O)N(O)CCCCCNC(=O)CCC(=O)N(O)CCCCCNC(=O)CCC(=O)N(O)CCCCCNC(=O)C12CC3CC(CC(C3)C1)C2	Active

tested on: SK-N-BE(2)-M17; assay: Cytotoxicity against human SK-N-BE(2)-M17 cells at 100 uM 24 hrs by MTT assay; type: cell-based; conditions: sk-n-be(2)-m17, 24 h

Compound	Activity
CC(=O)N(O)CCCCCNC(=O)CCC(=O)N(O)CCCCCNC(=O)CCC(=O)N(O)CCCCCNC(=O)C[C@H]1C[C@H]2CC[C@H]1C2 (relative stereo)	Non-Toxic
CC(=O)N(O)CCCCCNC(=O)CCC(=O)N(O)CCCCCNC(=O)CCC(=O)N(O)CCCCCNC(=O)C12CC3CC(CC(C3)C1)C2	Non-Toxic
CC(=O)N(O)CCCCCNC(=O)CCC(=O)N(O)CCCCCNC(=O)CCC(=O)N(O)CCCCCNC(=O)C12CC3CC(C1)CC(c1ccc([N+](=O)[O-])cc1)(C3)C2	Non-Toxic

tested on: SK-N-BE(2)-M17; assay: Cytoprotection against PQ-induced cell death in human SK-N-BE(2)-M17 cells assessed as increase in cell viability at 100 uM pretreated for 2 hrs followed by 1 mM PQ addition measured after 24 hrs by LDH assay; type: functional, cell-based; conditions: not given

Compound	Activity
CC(=O)N(O)CCCCCNC(=O)CCC(=O)N(O)CCCCCNC(=O)CCC(=O)N(O)CCCCCNC(=O)C[C@H]1C[C@H]2CC[C@H]1C2 (relative stereo)	Active
CC(=O)N(O)CCCCCNC(=O)CCC(=O)N(O)CCCCCNC(=O)CCC(=O)N(O)CCCCCNC(=O)C12CC3CC(CC(C3)C1)C2	Active
CC(=O)N(O)CCCCCNC(=O)CCC(=O)N(O)CCCCCNC(=O)CCC(=O)N(O)CCCCCNC(=O)C12CC3CC(C1)CC(c1ccc([N+](=O)[O-])cc1)(C3)C2	Active

tested on: Astrocyte; assay: Cytoprotection against H2O2-induced cell death in BSO pretreated C57BL6/J mouse brain primary astrocytes assessed as increase in cell viability at 10 uM pretreated for 2 hrs followed by H2O2 addition measured after 24 hrs by LDH release assay; type: functional, cell-based; conditions: not given

Compound	Activity
CC(=O)N(O)CCCCCNC(=O)CCC(=O)N(O)CCCCCNC(=O)CCC(=O)N(O)CCCCCNC(=O)C12CC3CC(CC(C3)C1)C2	Active
CC(=O)N(O)CCCCCNC(=O)CCC(=O)N(O)CCCCCNC(=O)CCC(=O)N(O)CCCCCNC(=O)C12CC3CC(C1)CC(c1ccc([N+](=O)[O-])cc1)(C3)C2	Active

tested on: not listed separately; assay: Binding affinity to Fe3+ assessed as change in retention time for compound-Fe3+ complex by RP-HPLC analysis relative to free ligand; conditions: not given

Compound	Retention time [min]
CC(=O)N(O)CCCCCNC(=O)CCC(=O)N(O)CCCCCNC(=O)CCC(=O)N(O)CCCCCNC(=O)C[C@H]1C[C@H]2CC[C@H]1C2 (relative stereo)	0.27
CC(=O)N(O)CCCCCNC(=O)CCC(=O)N(O)CCCCCNC(=O)CCC(=O)N(O)CCCCCNC(=O)C12CC3CC(CC(C3)C1)C2	0.43
CC(=O)N(O)CCCCCNC(=O)CCC(=O)N(O)CCCCCNC(=O)CCC(=O)N(O)CCCCCNC(=O)C12CC3CC(C1)CC(c1ccc([N+](=O)[O-])cc1)(C3)C2	1.71

tested on: SK-N-BE(2)-M17; assay: Cytoprotection against H2O2-induced cell death in human SK-N-BE(2)-M17 cells assessed as increase in cell viability at 100 uM treated 2 hrs post 0.8 mM H2O2 treatment measured after 24 hrs by LDH assay; type: functional, cell-based; conditions: not given

Compound	Activity
CC(=O)N(O)CCCCCNC(=O)CCC(=O)N(O)CCCCCNC(=O)CCC(=O)N(O)CCCCCNC(=O)C[C@H]1C[C@H]2CC[C@H]1C2 (relative stereo)	Active
CC(=O)N(O)CCCCCNC(=O)CCC(=O)N(O)CCCCCNC(=O)CCC(=O)N(O)CCCCCNC(=O)C12CC3CC(CC(C3)C1)C2	Active
CC(=O)N(O)CCCCCNC(=O)CCC(=O)N(O)CCCCCNC(=O)CCC(=O)N(O)CCCCCNC(=O)C12CC3CC(C1)CC(c1ccc([N+](=O)[O-])cc1)(C3)C2	Active

tested on: SK-N-BE(2)-M17; assay: Cytoprotection against H2O2-induced cell death in human SK-N-BE(2)-M17 cells assessed as increase in cell viability at 100 uM treated 2 hrs post 0.8 mM H2O2 treatment measured after 24 hrs by MTT assay; type: functional, cell-based; conditions: not given

Compound	Activity
CC(=O)N(O)CCCCCNC(=O)CCC(=O)N(O)CCCCCNC(=O)CCC(=O)N(O)CCCCCNC(=O)C[C@H]1C[C@H]2CC[C@H]1C2 (relative stereo)	Active
CC(=O)N(O)CCCCCNC(=O)CCC(=O)N(O)CCCCCNC(=O)CCC(=O)N(O)CCCCCNC(=O)C12CC3CC(CC(C3)C1)C2	Active
CC(=O)N(O)CCCCCNC(=O)CCC(=O)N(O)CCCCCNC(=O)CCC(=O)N(O)CCCCCNC(=O)C12CC3CC(C1)CC(c1ccc([N+](=O)[O-])cc1)(C3)C2	Active

tested on: SK-N-BE(2)-M17; assay: Cytoprotection against PQ-induced cell death in human SK-N-BE(2)-M17 cells assessed as increase in cell viability at 100 uM pretreated for 2 hrs followed by 1 mM PQ addition measured after 24 hrs by MTT assay; type: functional, cell-based; conditions: not given

Compound	Activity
CC(=O)N(O)CCCCCNC(=O)CCC(=O)N(O)CCCCCNC(=O)CCC(=O)N(O)CCCCCNC(=O)C[C@H]1C[C@H]2CC[C@H]1C2 (relative stereo)	Active
CC(=O)N(O)CCCCCNC(=O)CCC(=O)N(O)CCCCCNC(=O)CCC(=O)N(O)CCCCCNC(=O)C12CC3CC(CC(C3)C1)C2	Active
CC(=O)N(O)CCCCCNC(=O)CCC(=O)N(O)CCCCCNC(=O)CCC(=O)N(O)CCCCCNC(=O)C12CC3CC(C1)CC(c1ccc([N+](=O)[O-])cc1)(C3)C2	Active

tested on: SK-N-BE(2)-M17; assay: Cytoprotection against PQ-induced cell death in human SK-N-BE(2)-M17 cells assessed as increase in cell viability at 100 uM treated 2 hrs post 2 mM PQ treatment measured after 24 hrs by MTT assay; type: functional, cell-based; conditions: not given

Compound	Activity
CC(=O)N(O)CCCCCNC(=O)CCC(=O)N(O)CCCCCNC(=O)CCC(=O)N(O)CCCCCNC(=O)C[C@H]1C[C@H]2CC[C@H]1C2 (relative stereo)	Active
CC(=O)N(O)CCCCCNC(=O)CCC(=O)N(O)CCCCCNC(=O)CCC(=O)N(O)CCCCCNC(=O)C12CC3CC(CC(C3)C1)C2	Active
CC(=O)N(O)CCCCCNC(=O)CCC(=O)N(O)CCCCCNC(=O)CCC(=O)N(O)CCCCCNC(=O)C12CC3CC(C1)CC(c1ccc([N+](=O)[O-])cc1)(C3)C2	Active

tested on: SK-N-BE(2)-M17; assay: Cytotoxicity against human SK-N-BE(2)-M17 cells at 100 uM 24 hrs by LDH release assay; type: cell-based; conditions: sk-n-be(2)-m17, 24 h

Compound	Activity
CC(=O)N(O)CCCCCNC(=O)CCC(=O)N(O)CCCCCNC(=O)CCC(=O)N(O)CCCCCNC(=O)C[C@H]1C[C@H]2CC[C@H]1C2 (relative stereo)	Non-Toxic
CC(=O)N(O)CCCCCNC(=O)CCC(=O)N(O)CCCCCNC(=O)CCC(=O)N(O)CCCCCNC(=O)C12CC3CC(CC(C3)C1)C2	Non-Toxic
CC(=O)N(O)CCCCCNC(=O)CCC(=O)N(O)CCCCCNC(=O)CCC(=O)N(O)CCCCCNC(=O)C12CC3CC(C1)CC(c1ccc([N+](=O)[O-])cc1)(C3)C2	Non-Toxic

tested on: not listed separately; assay: Binding affinity to Fe3+ assessed as [M+H]+ adduct formation by LC-MS/MS analysis; conditions: not given

Compound	Activity
CC(=O)N(O)CCCCCNC(=O)CCC(=O)N(O)CCCCCNC(=O)CCC(=O)N(O)CCCCCNC(=O)C[C@H]1C[C@H]2CC[C@H]1C2 (relative stereo)	Active
CC(=O)N(O)CCCCCNC(=O)CCC(=O)N(O)CCCCCNC(=O)CCC(=O)N(O)CCCCCNC(=O)C12CC3CC(CC(C3)C1)C2	Active
CC(=O)N(O)CCCCCNC(=O)CCC(=O)N(O)CCCCCNC(=O)CCC(=O)N(O)CCCCCNC(=O)C12CC3CC(C1)CC(c1ccc([N+](=O)[O-])cc1)(C3)C2	Active
